Here are results for four compounds from patent US9352010B2, “Treatment of HIV-1 infection and AIDS” (The J. David Gladstone Institutes, priority 2011, dated 2016).

Holding throughout (assay type): cell-based, human
Experiment [1] has as its system lactate dehydrogenase (LDH) release. Description: LDH release from HIV-1-infected HLACs (pyroptosis). The conditions noted are these: caspase inhibitors 50 μM or 100 μM, 3 days, FIG. 16C. The protocol:
Caspase-1 activation can lead to a highly inflammatory form of cell death called pyroptosis. To gain insight into how CD4 T cells die, it was determined whether HIV infection in CD4 T cells induce pyroptosis cell death, as measured by lactate dehydrogenase (LDH) release. HLACs were left uninfected or infected with NL4-3 in the presence of no drugs, efavirenz, AMD3100, or caspase inhibitors (50 μM or 100 μM), as indicated in FIG. 16C. After 3 days, the supernatants were assayed for the cytosolic enzyme lactate dehydrogenase (LDH) and the LDH released by dying cells was quantified.
A general note: LDH in the medium is a marker of cell lysis.

Experiment [2] relates to HIV-1 reverse transcription products. Kind of experiment: Taqman QPCR of HIV-1 reverse transcription products in infected CD4 T-cells. To be noted: 16 hours after infection with NL4-3, versus untreated cells. The protocol:
Fresh HLACs were washed once with PBS and resuspended with PBS containing 5 mM EDTA and 2% fetal bovine serum. CD4 T-cells were isolated from HLACs by positive selection on CD4 microbeads (Miltenyi) and cultured overnight in 96-well U-bottomed plates (1×10^6 cells/well) as described above, and AZT was added to the indicated cell samples. Next day, the rest of the drugs were added to the indicated cell samples at concentrations as described above. Cells were chilled on ice for 15 min and DNAse-treated (Ambion, 60 U/ml, 1 hour, 37° C.) NL4-3 or Δvif NL4-3 virions (200 ng/well) were added. After a 1 hour incubation with virions on ice, cells were spinoculated at 1200 g for 2 hours at 4° C., incubated at 37° C. for 2 hours, washed three times with cold PBS, and resuspended in fresh RPMI with the indicated drugs. Eight or 16 hours after spinoculation, cell pellets were frozen at −80° C. Total DNA was purified from each cell pellet with a DNAse kit (Qiagen). Primer and probe sequences used to detect reverse transcription products are provided herein. QPCR reactions were performed in triplicates in TaqMan universal PCR master mix using each primer at 3.75 μM and probe at 2.5 μM. After 15 minutes at 95° C., reactions underwent 50 cycles of 15 sec at 95° C. followed by 1 min at 60° C. in an ABI Prism 7900HT (Applied Biosystems).
Next the status of HIV-1 reverse transcription in tonsillar CD4 T-cells after infection was examined. […] Taqman-based quantitative real-time PCR (QPCR) was used to quantify the synthesis of reverse transcription products in isolated CD4 T-cells from HLAC 16 hours after infection with NL4-3. Specific QPCR primers and probes were designed (Table 1) to monitor sequential steps in reverse transcription including generation of strong-stop DNA, first template exchange (Nef), and DNA strand elongation (Env) (FIG. 10A)
In general terms: Quantitative PCR measures a nucleic acid by following its amplification.

In experiment [3] the test system is caspase-1 and caspase-3. Description: Intracellular caspase activity after spinoculation with NL4-3. The conditions noted are these: AZT 5 μM, efavirenz 100 nM, T20 10 μg/ml, 3 days. The protocol:
HLACs were subjected to intracellular analysis of caspases activity and cytokine expression 3 days after spinoculation with NL4-3. Intracellular caspase-1, -3, -6, -8, and -9 activities were analyzed with a CaspaLux1 E1D2, Phiphilux G1D2, CaspaLux6 J1D2, CaspaLux 8 L1D2, and CaspaLux 9 M1D2 kits (OncoImmunin), respectively, at 37° C. for 15 min, followed by staining with PE anti-CD4, and APC anti-CD8, at 4° C. for 15 min. For annexin V analysis, cells were stained with APC-conjugated annexin V together with PE anti-CD4, FITC anti-CD8, and with 0.5 μg/ml ethidium monoazide (E-1374, Molecular Probes) for 15 min at 4° C. For intracellular cytokine capture, cells were incubated with 2 μM protein transport inhibitor GolgiStop (BD Biosciences) containing monensin, and 5 μg/ml Brefeldin A (EMD biosciences) at 37° C. for 6 hours before analysis. Cells were then stained with anti-CD4 and anti-CD8 antibodies at 4° C. for 15 min, and fixed in 1% paraformaldehyde at 4° C. for 1 hour. Fixed cells were washed extensively with PBS and were stained in 0.2% saponin buffer (PBS+2% FBS+0.2% saponin) containing PE anti-human TNFα (R&D Systems), FITC anti-human IFNβ (PBL Biomedical laboratories), PE anti-human IL-1β (BD Biosciences), or APC anti-phosphorylated p53 at serine 37 (pS37) at 4° C. for 1 hour.

In the case of `c1cc(CN2CCCNCCNCCCNCC2)ccc1CN1CCCNCCNCCCNCC1` [AMD3100], the “LDH release from HIV-1 infected cells” value in experiment [1] was “LDH was not released”. Also, the “reverse transcription products corresponding to strong-stop DNA” value in experiment [2] is “greatly reduced”.
Consider `Cc1cn([C@H]2C[C@H](N=[N+]=[N-])[C@@H](CO)O2)c(=O)[nH]c1=O` [AZT], for which, in experiment [2], the “reverse transcription products corresponding to strong-stop DNA” value is recorded as “similar”.
Take `O=C1Nc2ccc(Cl)cc2[C@@](C#CC2CC2)(C(F)(F)F)O1` [efavirenz]: the “LDH release from HIV-1 infected cells” value in experiment [1] is recorded as “LDH was not released”. Further, in experiment [3], the “activation of caspase-1 and caspase-3 in abortively infected CD4 T-cells” value is on record as “prevented activation of these caspases”.
With enfuvirtide, in experiment [3], the “activation of caspase-1 and caspase-3 in abortively infected CD4 T-cells” value was “prevented activation of these caspases”.
